Columns and labels:
[1] = tested on: RPP631 and DMS79 cells; test: Cell cycle analysis (propidium iodide flow cytometry); format: cell-based, mouse, human
Protocol: Cells were seeded in 6-well plates (0.5-1×10^6 cells/well) in media and treated with YKL-5-124 at indicated concentrations and time points. Cells were collected by centrifugation, washed in cold PBS and resuspended in 1 ml of 80% EtOH in PBS and stored overnight at −20° C. Cells were again collected by centrifugation and washed 3× with cold PBS. Hereafter cells were resuspended in PBS containing: 0.1% Triton X-100, 25 μg/ml Propidium Iodide (PI) and 0.2 mg/ml RNase A and incubated for 45 min at 37° C. After incubation, cells were placed at 4° C. until ready for analysis with flow cytometry. Cells were gated for PI staining and cell accumulation in G1, S and G2/M were calculated using ModFit LT software.

[2] = tested on: Cyclin E, A, B, D in RPP631 and DMS79; test: Cyclin expression (western blotting, qRT-PCR); format: cell-based, mouse, human; conditions: 24 hours
Protocol: Cell pellets were collected and then subjected to total RNA extraction using RNeasy Plus Mini Kit (QIAGEN, Cat #74136) according to the manufacturer's instructions, or using TRIzol:Chloroform phase-separation by centrifugation followed by RNA precipitation using isopropanol. The extracted RNA was reversely transcribed into cDNA using the High-Capacity RNA-to-cDNA™ Kit (Thermo Fisher Scientific, Cat #4387406) according to the manufacturer's instructions. The obtained cDNA samples were diluted and used for RT-qPCR. PowerUp™ SYBR™ Green Master Mix (Thermo Fisher Scientific, Cat #A25742) or TaqMan Gene Expression Master Mix (Life Technologies, Cat #4369514). Gene specific primers with sequences listed in Table 3 were used for PCR amplification and detection on the StepOnePlus™ Real-Time PCR System (Thermo Fisher Scientific). RT-qPCR data were normalized to Actb (mouse cells) or GUSB (human cells) and presented as fold changes of gene expression in the test sample compared to the control.
Cells in culture were collected by centrifuging at 1,500 rpm and then washed with ice-cold PBS twice to completely remove residual medium. […] Protein concentrations in lysates were measured by Pierce™ BCA Protein Assay Kit (Thermo Fisher Scientific, Cat #23225) and followed by the addition of SDS loading buffer (6×) and heated at 95° C. for 5 min. […]

[3] = tested on: DMS79 cells; test: BrdU analysis; format: cell-based, human; conditions: 100 nM, 24 and 48 hour
Protocol: Cells were seeded in 6-well plates (0.5-1×10^6 cells/well) in media and treated with YKL-5-124 at indicated concentrations and time points. Prior to collection, cells were pulsed with […] BrdU (BD Biosciences, #559619) for 2-4 hr (depending on cell line doubling time) and collected by centrifugation. Hereafter cells were permeabilized, fixated and stained according to BrdU kit instruction (BD Biosciences, Cat #559619). Cells were gated for BrdU incorporation (FITC) and 7-aminoactinomycin D (7-AAD) to quantify cells in G1, S (BrdU positive) and G2/M.

[4] = tested on: RPP-MYC orthotopic model; test: Treatment study in RPP-MYC orthotopic SCLC model; format: in vivo, mouse
Protocol: All animal studies were reviewed and approved by the Institutional Animal Care and Use Committee (IACUC) at the New York University Langone Health (NYULH) and Dana-Farber Cancer Institute (DFCI). From 6 weeks of age, mice were induced with adenovirus-Cre recombinase (Ad-Cre) by intratracheal intubation to allow cre-lox-mediated recombination of floxed Rb1, p53 and p130 alleles. For syngeneic orthotopic models, ultrasound-guided transthoracic injection was performed using 200,000 RPP631, RP or RPP-MYC cells in 30 μL PBS directly into the lung of 6 to S-week-old C57BL/6 (Jackson Laboratory, Stock No: 000664). For OT-IT cell assay, OT-I mice were purchased from the Jackson Laboratory (Stock No: 003S31). Both males and females mice were used and all mice were maintained in accordance with the respective NYULH and DFCI on the care, welfare, and treatment of laboratory animals. […]
Animals were anesthetized with isoflurane to perform MRI of the lung field using BioSpec USR70/30 horizontal bore system (Bruker) to scan 24 consecutive sections. Tumor volumes within the whole lung were quantified using 3-D slicer software to reconstruct MRI volumetric measurements as described previously. […]

[5] = tested on: tumor-infiltrating immune cells, RPP orthotopic model; test: Immune profiling flow cytometry of tumor-bearing lung; format: in vivo, mouse
Protocol: Mice were humanely euthanized, and mouse lungs were perfused using sterile PBS through heart perfusion from the left ventricle after BAL fluid collection. The whole lung was cut and minced into small pieces followed by digestion in collagenase D (Sigma-Aldrich) and DNase I (Sigma-Aldrich) in Hank's Balanced Salt Solution (HBSS) at 37° C. for 30 minutes. After incubation, the digested tissue was subjected to a 70 μm cell strainer (Thermo Fisher Scientific) to obtain single-cell suspensions. Separated cells were treated with 1×red blood cell (RBC) lysis buffer (BioLegend). Live cells were determined by LIVE/DEAD fixable aqua dead cell stain kit (Molecular Probes). The cell pellets were resuspended in PBS with 2% FBS for FAGS analysis. Cells were stained with cell surface markers as indicated followed by fixation/permeabilization (eBioscience). Cells were imaged on BD LSRFortessa (BD Biosciences) and analyzed using FlowJo software (Tree Star).

C=CC(=O)Nc1ccc(C(=O)Nc2n[nH]c3c2CN(C(=O)N[C@H](CN(C)C)c2ccccc2)C3(C)C)cc1 [YKL-5-124]
cells in G1 phase ([1]; 72 hours): significant accumulation | cells in S phase ([1]; 72 hours): corresponding loss | percentage of cells in G2/M phase ([1]; concentrations up to 500 nM): not significantly changed | Cyclin E protein and mRNA (CCNE1) levels [2]: increase | expression of Cyclins A (CCNA1), B (CCNB1), and D (CCND1) [2]: remained unchanged | BrdU-incorporated S-phase cells [3]: significant decrease | tumor response / tumor growth (MRI tumor volume) [4]: notably delayed tumor growth | CD44^highCD62L^+ effector CD4^+ T cells (CD44^highCD62L^low for the combination) ([5]; 7-day treatment): substantial increase | GzmB^+ CD8^+ T cells percentage ([5]; 7-day treatment): considerable but equivalent increase | ICOS^+ CD4^+ T cells ([5]; 7-day treatment): significantly higher frequencies | frequencies of total CD4^+ T cell infiltrates ([5]; 7-day treatment): no significant change | frequencies of total CD8^+ T cell infiltrates ([5]; 7-day treatment): no significant change | tumor-infiltrating CD4^+ T cells expressing Ki67 ([5]; 7-day treatment): modest increase | percentages of tumor resident DCs (MHCII^+ CD11c^+ CD103^+) ([5]; compared to control mice): significant increase

Source: patent US20230114207A1, “THE COMBINATION OF CYCLIN DEPENDENT KINASE 7 INHIBITOR AND IMMUNOTHERAPY FOR TREATMENT OF CANCER” (Dana-Farber Cancer Institute, Inc., priority 2019, published 2023)
